{
  "source": "patent US4202891A",
  "about": "“15-Oxygenated sterol compounds and the use of such compounds to inhibit the biosynthesis of sterols” (priority 1977, dated 1980)",
  "key": {"[1]": {"system": "sterol biosynthesis in primary cultures of mouse liver cells", "assay": "Inhibition of sterol synthesis from [1-14C]acetate in primary cultures of liver cells", "assay_type": "cell-based", "details": "primary cultures of liver cells, read-out: Concentrations Required for 50% Inhibition of Sterol Synthesis", "protocol": "The effect of various 15-oxygenated sterols on sterol biosynthesis in L cells and in primary cultures of mouse liver cells was tested essentially under conditions described in detail previously [A. A. Kandutsch and H. W. Chen, J. Biol. Chem., Vol. 248, pp. 8408-8417 (1973) and A. A. Kandutsch and H. W. Chen, J. Biol. Chem., Vol. 249, pp. 6057-6061 (1974`)].\nThe primary liver cell cultures were prepared from 16-day-old (C57BL/6J fetuses and grown in chemically defined medium (serum-free) as described in the above cited publications. The L cells, a subline of NCTC clone 929 mouse fibroblasts, were grown in chemically defined medium (serum-free) as described in the publications. These L cells are transformed fibroblasts which are regarded as malignant since they will grow as tumors if injected into the mouse strain from which they were initially obtained.\nThe preparation of steroid-containing media, procedures for assays of the conversion of [1-^14 C]acetate into digitonin-precipitable sterols, fatty acids, and CO2 and methods for the measurement of DNA, protein, and HMG-CoA reductase were as described in the published articles. L cell cultures were preincubated with the 15-oxygenated sterols and their derivatives for 4 hours, then [1-^14 C]acetate was added at a concentration of 4 μmoles per ml (4 μCi per ml); or the L cell cultures were incubated for 5 hours with the 15-oxygenated sterols before they were harvested for determination of microsomal HMG-CoA reductase activity.\nConditions for incubating the 15-oxygenated sterols or their derivatives with liver cell cultures were similar to those described for L cell cultures except that the cultures were incubated with the test compounds for 12 hours before labeled acetate was added or before they were harvested for enzyme assay.\nThe test compounds were tested over a range of at least 4 concentrations and the assay was repeated until the concentration of test compound required to produce 50% inhibition was located on the steeply declining portion of an activity vs. concentration plot. To diminish any possible effects of generalized differences in cellular metabolism, the rates of sterol synthesis from [1-^14 C]acetate were calculated as the ratio of [^14 C]sterols to [^14 C]fatty acids as described in the two cited articles by Kandutsch and Chen."}, "serum cholesterol": {"system": "serum cholesterol", "assay": "Effect on serum cholesterol levels in rats, daily subcutaneous injection (Examples 41, 42)", "assay_type": "in vivo, rat (male, Sprague-Dawley)", "details": "day 3", "protocol": "Male rats of the Sprague-Dawley strain were fed Purina rat chow ad libidum. The rats were maintained on a light (7 A.M.-6 P.M.) -dark (6 P.M.-7 A.M.) cycle throughout the study and for a period of at least 4 days prior to the initiation of the study.\n3β-Hexadecanoyloxy-5α-cholest-8(14)-en-15-one (5 mg; dissolved in 0.25 ml of triolein), hereafter referred to as the \"palmitate ester\", or 3β-hemisuccinoyloxy-5α-cholest-8(14)-en-15-one (5 mg; suspended in 0.25 ml of triolein through the use of a tight-fitting all-glass homogenizer), hereafter referred to as the \"hemisuccinate ester\", were administered subcutaneously once a day at about 12 P.M. to each of eight and six rats, respectively. Control animals (8) received daily injections of triolein (0.25 ml).\nBlood samples were taken from the rats periodically and the serum cholesterol concentrations measured, in duplicate, by the method of Abell et al., J. Biol. Chem., Vol. 195, pp. 357-366 ([…]).\nFollowing generally the procedure described in Example 41, 3β-Ethoxy-14α-ethyl-5α-cholest-7-en-15-one (5 mg) in triolein (0.25 ml) was administered subcutaneously once a day to each of eight rats. Control animals (8) received daily injections of triolein (0.25 ml).\nSimilarly, 5α-cholest-8(14)-en-3β-ol-15-one (2mg) in (0.2 ml) olive oil or 5.0 mg in 0.5 ml of olive oil) was administered subcutaneously once a day to each of a group of rats. The 2 mg dose was administered to 12 rats, while a like number of rats received daily injections of 0.2 ml olive oil. 5 mg doses were administered to each of 6 rats, while 6 control animals received daily injections of 0.5 ml olive oil. The rats used in this study initially weighed between 110 and 190 grams."}, "plasma cholesterol": {"system": "plasma cholesterol", "assay": "Plasma cholesterol concentration in mice, ketone in diet (Example 47)", "assay_type": "in vivo, mouse", "details": "0.2% in diet; after eight days; 7-week-old mice", "protocol": "Another dietary experiment with 5β-cholest-8(14)-en-3β-ol-15-one was performed using 7-week-old mice. Five mice were fed the ketone at a level of 0.2% in a diet which was essentially free of animal sterols for eight days. Five control pair-fed mice were fed the same diet to which the ketone was not added. The mean plasma cholesterol concentration in the ketone group after the eight day experiment was 35.8(±3.6, standard error of mean) mg per 100 ml of plasma while the corresponding value for the pair-fed group was 114.4 (±3.4, standard error of mean). It should be noted that very closely matched pairfeeding is difficult to perform in mice of this age due to the small amounts of food which are consumed and which must be accurately determined in such experiments."}, "[2]": {"details": "2 mg s.c. once a day in 0.2 ml olive oil"}, "[3]": {"details": "5 mg s.c. once a day in 0.5 ml olive oil"}},
  "data": [
    {"smiles": "CC(C)CCC[C@@H](C)[C@H]1CC(=O)C2=C3CC[C@H]4C[C@@H](O)CC[C@]4(C)[C@H]3CC[C@@]21C", "note": "[5α-Cholest-8(14)-en-3β-ol-15-one, 5α-cholest-8(14)-en-3β-ol-15-one]", "values": [
      {"measurement": "IC50", "setting": "[1]", "result": 4, "unit": "µM"},
      {"measurement": "% Reduction (relative to olive oil-treated rats)", "setting": "serum cholesterol; [2]", "result": 12, "unit": "%"},
      {"measurement": "Serum Cholesterol (Mean ± S.E.M.)", "setting": "serum cholesterol; [2]", "result": "64.5 ± 2.5", "unit": "mg per 100 ml"},
      {"measurement": "% Reduction (relative to olive oil-treated rats)", "setting": "serum cholesterol; [3]", "result": 22, "unit": "%"},
      {"measurement": "Serum Cholesterol (Mean ± S.E.M.)", "setting": "serum cholesterol; [3]", "result": "59.6 ± 2.2", "unit": "mg per 100 ml"},
      {"measurement": "mean plasma cholesterol concentration (standard error of mean)", "setting": "plasma cholesterol", "result": "35.8 mg per 100 ml of plasma"}
    ]}
  ]
}
